Measurements published in patent US6730665B1, “Treatment of bone cancer” (Mayo Foundation for Medical Education and Research, priority 1999, dated 2004).

Legend:
[1] = tested on: MG63 human osteosarcoma cells; test: Cell survival, viable cell count with trypan blue; type: cell-based; settings: for cell survival: 20 and 50 μM
Procedure: (§1) MG63 and TE85 human osteosarcoma cells, and ROS 17/2.8 rat osteosarcoma cells were grown in DMEM/F12 phenol-red free medium containing 10% charcoal-stripped fetal bovine serum (FBS) and supplemented with 100 units/ml penicillin, 100 μg/ml streptomycin. Cell were incubated at 37° C. under 5% CO2 in air. Cells were plated at 5×10^4 cells per well into 24 well plates containing 1 ml of medium per well. After allowing the cells to attach overnight, media in the wells were replaced with fresh 1 ml medium. Human fetal osteoblasts (hFOB) cells and hFOB cells overexpressing estrogen receptor-alpha (hFOB-ERα) and estrogen receptor-beta (hFOB-ERβ) were grown in DMEM/F12 medium containing FBS, penicillin, streptomycin and Geneticin (300 μg/mL). The laboratory of Dr. B. L. Riggs at Mayo Clinic provided primary human osteoblast (HOB) cells. HOB cells were basically established from cancellous bone obtained as waste from orthopedic procedures and cultured as explants to generate the osteoblast-like monolayers as described by Borke et al., J. Clin. Endocrinol. Metab., 1988, 67:1299-1304. Human FOB cells and hFOB cells stably transfected with estrogen receptors (ERs) were maintained at 34° C., while all other cells were incubated at 37° C. under 5% CO2 in air.
(§2) Estrogen metabolites were diluted 1000 fold to give the final required concentrations in each well, and maintained for 72 hrs. The metabolites 2ME, 2OHE, and E2 were purchased from Sigma Chemical Company (St. Louis, Mo.). Stock solutions for each metabolite were made in 95% ethanol. Cell growth was measured by taking the viable cell count. At the end of metabolite treatment, cells were harvested, stained with trypan blue, and counted under a light microscope.
MG63 cells were treated with 0, 2, and 10 μM concentrations of 2ME in the presence or absence of 100 nM ICI for 72 hours. The cells were harvested and the viable cell counts were taken after staining with trypan blue.

[2] = tested on: osteosarcoma cells and immortalized cell lines; test: Cell survival, summary statement; type: cell-based; settings: for impact on cell survival (in words): 2 μM, 72 hours; for reduction of cell survival: 20 μM
Procedure: as §1, §2

Row | Structure (SMILES) | impact on cell survival (in words) ([1]; 2 μM, 72 hrs) | cell survival ([1]; 72 hrs) | impact on cell survival (in words) [2] | reduction of cell survival [2] | impact on cell survival (in words) ([1]; 100 nM ICI alone, 72 hours)
1 | C[C@]12CC[C@@H]3c4cc(O)c(O)cc4CC[C@H]3[C@@H]1CC[C@@H]2O [2OHE, 2-hydroxyestradiol] | little impact | about 40% | minimal impact | 60% | 
2 | C[C@]12CC[C@@H]3c4ccc(O)cc4CC[C@H]3[C@@H]1CC[C@@H]2O [E2, 17β-estradiol] | little impact | ~50% | minimal impact | 50% | 
3 | COc1cc2c(cc1O)CC[C@@H]1[C@@H]2CC[C@]2(C)C(=O)CC[C@@H]12 [2-methoxyestrone] |  |  | minimal impact |  | 
4 | C[C@]12CC[C@@H]3c4ccc(O)cc4C[C@@H](CCCCCCCCC[S+]([O-])CCCC(F)(F)C(F)(F)F)[C@H]3[C@@H]1CC[C@@H]2O (stereo partly shown) [ICI] |  |  |  |  | little impact
